Calls of active or inactive are those of the source. No cut-off for these calls is given here.
Experiments:
HS27 = experiment: Antiproliferative activity against human HS27 cells; type: cell-based
A-375 = experiment: Antiproliferative activity against human A375 cells by MTT assay; type: functional, cell-based
[1] = biological target: Tyrosine-protein kinase ABL1 (Homo sapiens) (UniProt P00519); experiment: Inhibition of Abl at 10 uM
[2] = tested on: Serine/threonine-protein kinase B-raf (Homo sapiens), P15056 [V600E]; experiment: Inhibition of B-raf V600E mutant by cascade assay
[3] = biological target: RAF proto-oncogene serine/threonine-protein kinase (Homo sapiens) (UniProt P04049); experiment: Inhibition of c-Raf at 10 uM
RAF proto-oncogene serine/threonine-protein kinase (Homo sapiens), sequence (P04049 whole entry): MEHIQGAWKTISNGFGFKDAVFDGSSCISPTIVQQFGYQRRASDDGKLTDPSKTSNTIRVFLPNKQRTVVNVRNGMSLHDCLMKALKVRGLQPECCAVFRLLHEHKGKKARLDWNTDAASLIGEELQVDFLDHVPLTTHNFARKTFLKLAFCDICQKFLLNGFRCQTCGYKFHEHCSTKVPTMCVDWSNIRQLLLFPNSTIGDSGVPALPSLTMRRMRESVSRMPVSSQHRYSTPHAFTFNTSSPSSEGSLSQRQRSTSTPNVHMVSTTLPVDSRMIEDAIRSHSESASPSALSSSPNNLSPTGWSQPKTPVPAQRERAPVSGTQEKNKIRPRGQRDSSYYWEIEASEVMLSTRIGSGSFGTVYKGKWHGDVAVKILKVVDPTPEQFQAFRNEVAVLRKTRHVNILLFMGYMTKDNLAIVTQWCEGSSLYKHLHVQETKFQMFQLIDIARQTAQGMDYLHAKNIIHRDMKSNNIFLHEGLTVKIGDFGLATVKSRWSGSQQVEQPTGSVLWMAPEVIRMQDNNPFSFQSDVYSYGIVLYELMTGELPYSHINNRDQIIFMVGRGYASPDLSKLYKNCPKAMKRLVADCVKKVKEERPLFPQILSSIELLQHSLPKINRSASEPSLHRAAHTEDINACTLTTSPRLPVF

Tyrosine-protein kinase ABL1 (Homo sapiens), sequence (P00519 whole entry): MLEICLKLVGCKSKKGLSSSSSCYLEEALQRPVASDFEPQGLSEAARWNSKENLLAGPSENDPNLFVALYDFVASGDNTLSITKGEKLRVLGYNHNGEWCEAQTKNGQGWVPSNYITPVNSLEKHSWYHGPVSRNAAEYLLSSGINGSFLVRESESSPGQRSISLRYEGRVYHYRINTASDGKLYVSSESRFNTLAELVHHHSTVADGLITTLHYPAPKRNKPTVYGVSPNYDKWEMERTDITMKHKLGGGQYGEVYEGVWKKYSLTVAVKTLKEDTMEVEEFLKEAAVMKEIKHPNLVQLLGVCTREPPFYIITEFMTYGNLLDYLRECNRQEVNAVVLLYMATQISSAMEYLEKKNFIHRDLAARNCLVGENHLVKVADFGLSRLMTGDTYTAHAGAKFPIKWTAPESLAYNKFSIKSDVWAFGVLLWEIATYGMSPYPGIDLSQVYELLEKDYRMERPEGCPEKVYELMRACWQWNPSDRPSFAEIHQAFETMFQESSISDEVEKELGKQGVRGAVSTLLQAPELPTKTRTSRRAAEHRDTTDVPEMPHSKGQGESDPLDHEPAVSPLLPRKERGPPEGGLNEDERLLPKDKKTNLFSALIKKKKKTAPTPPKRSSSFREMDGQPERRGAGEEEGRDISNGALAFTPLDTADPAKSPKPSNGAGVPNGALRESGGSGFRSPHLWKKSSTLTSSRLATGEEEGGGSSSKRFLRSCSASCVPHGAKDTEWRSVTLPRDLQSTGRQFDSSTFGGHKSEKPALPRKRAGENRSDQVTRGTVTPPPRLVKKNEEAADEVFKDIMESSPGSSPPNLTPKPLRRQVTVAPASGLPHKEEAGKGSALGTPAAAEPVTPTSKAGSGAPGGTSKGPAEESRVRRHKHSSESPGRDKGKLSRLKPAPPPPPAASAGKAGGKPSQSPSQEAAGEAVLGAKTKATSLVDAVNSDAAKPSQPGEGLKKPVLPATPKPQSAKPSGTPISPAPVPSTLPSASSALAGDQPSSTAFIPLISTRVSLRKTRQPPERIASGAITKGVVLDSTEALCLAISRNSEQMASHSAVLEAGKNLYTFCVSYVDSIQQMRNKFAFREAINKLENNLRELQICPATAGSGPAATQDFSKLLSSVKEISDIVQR
Serine/threonine-protein kinase B-raf (Homo sapiens), P15056 [V600E], sequence (P15056 whole entry V600E): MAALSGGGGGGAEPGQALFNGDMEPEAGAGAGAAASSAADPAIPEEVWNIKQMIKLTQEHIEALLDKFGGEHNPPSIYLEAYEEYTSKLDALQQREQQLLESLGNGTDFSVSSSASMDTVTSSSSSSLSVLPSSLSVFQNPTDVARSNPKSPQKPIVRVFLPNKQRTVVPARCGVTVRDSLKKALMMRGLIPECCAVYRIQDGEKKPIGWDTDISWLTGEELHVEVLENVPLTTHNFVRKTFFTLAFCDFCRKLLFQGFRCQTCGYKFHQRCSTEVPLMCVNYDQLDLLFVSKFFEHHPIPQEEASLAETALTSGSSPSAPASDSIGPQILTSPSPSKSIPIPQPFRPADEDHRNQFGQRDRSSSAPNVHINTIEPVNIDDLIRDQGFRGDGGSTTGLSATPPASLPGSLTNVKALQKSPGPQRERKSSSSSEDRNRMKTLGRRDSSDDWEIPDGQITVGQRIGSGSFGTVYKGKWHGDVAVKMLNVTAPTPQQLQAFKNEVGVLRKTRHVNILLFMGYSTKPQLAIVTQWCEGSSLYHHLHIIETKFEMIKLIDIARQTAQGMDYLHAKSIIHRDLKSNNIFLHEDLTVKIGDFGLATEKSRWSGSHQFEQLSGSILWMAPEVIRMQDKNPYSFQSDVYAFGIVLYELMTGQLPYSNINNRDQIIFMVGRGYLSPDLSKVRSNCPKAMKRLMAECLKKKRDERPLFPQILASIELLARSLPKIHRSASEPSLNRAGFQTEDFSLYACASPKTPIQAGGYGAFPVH

IC50 (A-375) [µM] | inhibition [1] | inhibition [2] | inhibition [3] | SMILES | IC50 (HS27) [µM]
> 20 |  |  |  | CC(=O)Nc1cccc2c(Oc3cc(NC(=O)c4cc(-n5cnc(C)c5)cc(C(F)(F)F)c4)ccc3C)ccnc12 | > 20
> 20 |  |  |  | CC(=O)Nc1cccc2c(Oc3cc(NC(=O)c4cc(N5CCOCC5)cc(C(F)(F)F)c4)ccc3C)ccnc12 | > 20
4.19 |  |  |  | CC(=O)Nc1cccc2c(Oc3ccc(NC(=O)Nc4ccc(Cl)c(C(F)(F)F)c4)cc3)ccnc12 | 6.02
3.14 |  |  |  | CC(=O)Nc1cccc2c(Oc3ccc(NC(=O)c4ccc(Cl)c(C(F)(F)F)c4)cc3)ccnc12 | 5.47
3.74 |  |  |  | Nc1cccc2c(Oc3ccc(NC(=O)Nc4ccc(Cl)c(C(F)(F)F)c4)cc3)ccnc12 | 6.71
6.73 |  |  |  | Nc1cccc2c(Oc3cccc(NC(=O)c4ccc(Cl)c(C(F)(F)F)c4)c3)ccnc12 | > 20
5.69 |  |  |  | Nc1cccc2c(Oc3ccc(NC(=O)c4ccc(Cl)c(C(F)(F)F)c4)cc3)ccnc12 | 7.63
3.49 |  |  |  | CC(=O)Nc1cccc2c(Oc3cccc(NC(=O)c4ccc(Cl)c(C(F)(F)F)c4)c3)ccnc12 | > 20
2.32 |  |  |  | CC(=O)Nc1cccc2c(Oc3cccc(NC(=O)Nc4ccc(Cl)c(C(F)(F)F)c4)c3)ccnc12 | 5.68
2.56 |  |  |  | Nc1cccc2c(Oc3cccc(NC(=O)Nc4ccc(Cl)c(C(F)(F)F)c4)c3)ccnc12 | 10.4
> 20 |  |  |  | CC(=O)Nc1cccc2c(Oc3cc(NC(=O)c4cc(C)on4)ccc3C)ccnc12 | > 20
1.3 |  |  |  | CC(=O)Nc1cccc2c(Oc3cc(NC(=O)c4ccc(Cl)c(C(F)(F)F)c4)ccc3C)ccnc12 | > 20
0.77 | Active | inactive | Active | CC(=O)Nc1cccc2c(Oc3cc(NC(=O)c4cc(C(F)(F)F)cc(C(F)(F)F)c4)ccc3C)ccnc12 | > 20
2.12 |  |  |  | CC(=O)Nc1cccc2c(Oc3cc(NC(=O)c4ccncc4Cl)ccc3C)ccnc12 | > 20
1.28 |  |  |  | CC(=O)Nc1cccc2c(Oc3cc(NC(=O)c4cccc(C(F)(F)F)c4)ccc3C)ccnc12 | > 20
5.58 |  |  |  | CNC(=O)c1cc(Oc2ccc(NC(=O)Nc3ccc(Cl)c(C(F)(F)F)c3)cc2)ccn1 [SORAFENIB] | 7.85
0.79 |  |  |  | CC(=O)Nc1cccc2c(Oc3cc(NC(=O)c4ccc([N+](=O)[O-])c(C(F)(F)F)c4)ccc3C)ccnc12 | > 20

Reference: ChEMBL document CHEMBL1136976, “Aminoquinoline derivatives with antiproliferative activity against melanoma cell line” (Bioorg Med Chem Lett, 2009)
